Source: patent US20250230193A1, “CYCLIC COMPOUND HAVING SELECTIVE KRAS INHIBITORY EFFECT ON HRAS AND NRAS” (CHUGAI SEIYAKU KABUSHIKI KAISHA, priority 2022, published 2025)

How the values were obtained:
[1] = target: GDP-bound NRAS wild-type protein (Homo sapiens, UniProt P01111); assay: Binding to NRAS by surface plasmon resonance (SPR), Single Cycle Kinetics; conditions: KD ratio, GDP-bound NRAS wild-type vs GDP-bound KRAS wild-type, SPR
[2] = target: GDP-bound HRAS wild-type protein (Homo sapiens, UniProt P01112); assay: Binding to HRAS by surface plasmon resonance (SPR), Single Cycle Kinetics; conditions: KD ratio, GDP-bound HRAS wild-type vs GDP-bound KRAS wild-type, SPR
GDP-bound HRAS wild-type protein, sequence (P01112 whole entry): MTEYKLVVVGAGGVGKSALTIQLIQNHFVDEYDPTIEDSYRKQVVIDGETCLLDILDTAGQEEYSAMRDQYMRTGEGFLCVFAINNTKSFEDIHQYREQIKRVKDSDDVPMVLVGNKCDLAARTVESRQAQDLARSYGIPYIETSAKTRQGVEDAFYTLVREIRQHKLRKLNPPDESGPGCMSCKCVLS

GDP-bound NRAS wild-type protein, sequence (P01111 whole entry): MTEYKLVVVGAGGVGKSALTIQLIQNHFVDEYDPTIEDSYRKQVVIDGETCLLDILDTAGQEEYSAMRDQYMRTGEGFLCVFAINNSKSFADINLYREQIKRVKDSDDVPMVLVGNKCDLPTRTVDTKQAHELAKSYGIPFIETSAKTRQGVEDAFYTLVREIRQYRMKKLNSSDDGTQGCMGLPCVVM

SMILES	NRAS/KRAS (ratio of KD value with respect to NRAS to KD value with respect to KRAS) [1]	HRAS/KRAS (ratio of KD value with respect to HRAS to KD value with respect to KRAS) [2]
CCO[C@@H]1C[C@H]2C(=O)NC3(CCC3)C(=O)N(C)[C@@H](C3CCCC3)C(=O)N(C)[C@H](C(=O)N3CCOCC3)CC(=O)N(C)[C@@H](CC(C)C)C(=O)N[C@@H]([C@@H](C)CC)C(=O)N(C)CC(=O)N(C)[C@H]3CCCCCN(C3=O)[C@@H](Cc3ccc(F)cc3Cl)C(=O)N(C)CC(=O)N[C@@H](CCc3cc(F)c(C(F)(F)F)c(F)c3)C(=O)N2C1 [PP0918]	B (a compound having 3 or more and less than 10 is denoted as B)	B (a compound having 3 or more and less than 10 is denoted as B)
CCO[C@@H]1C[C@H]2C(=O)NC3(CCC3)C(=O)N(C)[C@@H](C3CCCC3)C(=O)N(C)[C@H](C(=O)N3CCOCC3)CC(=O)N(C)[C@@H](CC(C)C)C(=O)N[C@@H]([C@@H](C)CC)C(=O)N(C)CC(=O)N(C)[C@H]3CCCCCN(C3=O)[C@@H](Cc3ccc(F)c(Cl)c3)C(=O)N(C)CC(=O)N[C@@H](CCc3cc(F)c(C(F)(F)F)c(F)c3)C(=O)N2C1 [PP0919]	B (a compound having 3 or more and less than 10 is denoted as B)	B (a compound having 3 or more and less than 10 is denoted as B)
CCO[C@@H]1C[C@H]2C(=O)NC3(CCC3)C(=O)N(C)[C@@H](C3CCCC3)C(=O)N(C)[C@H](C(=O)N3CCOCC3)CC(=O)N(C)[C@@H](CC(C)C)C(=O)N[C@@H]([C@@H](C)CC)C(=O)N(C)CC(=O)N(C)[C@H]3CCCCCN(C3=O)[C@@H](Cc3ccc4sccc4c3)C(=O)N(C)CC(=O)N[C@@H](CCc3cc(F)c(C(F)(F)F)c(F)c3)C(=O)N2C1 [PP0920]	B (a compound having 3 or more and less than 10 is denoted as B)	B (a compound having 3 or more and less than 10 is denoted as B)
CCO[C@@H]1C[C@H]2C(=O)NC3(CCC3)C(=O)N(C)[C@@H](C3CCCC3)C(=O)N(C)[C@H](C(=O)N3CCOCC3)CC(=O)N(C)[C@@H](CC(C)C)C(=O)N[C@@H]([C@@H](C)CC)C(=O)N(C)CC(=O)N(C)[C@H]3CCCCCN(C3=O)[C@@H](Cc3ccc4ccsc4c3)C(=O)N(C)CC(=O)N[C@@H](CCc3cc(F)c(C(F)(F)F)c(F)c3)C(=O)N2C1 [PP0921]	B (a compound having 3 or more and less than 10 is denoted as B)	B (a compound having 3 or more and less than 10 is denoted as B)
CCO[C@@H]1C[C@H]2C(=O)NC3(CCC3)C(=O)N(C)[C@@H](C3CCCC3)C(=O)N(C)[C@H](C(=O)N3CCOCC3)CC(=O)N(C)[C@@H](CC(C)C)C(=O)N[C@@H]([C@@H](C)CC)C(=O)N(C)CC(=O)N(C)[C@H]3CCCCCN(C3=O)[C@@H](Cc3ccc(F)c(C)c3)C(=O)N(C)CC(=O)N[C@@H](CCc3cc(F)c(C(F)(F)F)c(F)c3)C(=O)N2C1 [PP0922]	B (a compound having 3 or more and less than 10 is denoted as B)	B (a compound having 3 or more and less than 10 is denoted as B)
CCO[C@@H]1C[C@H]2C(=O)NC3(CCC3)C(=O)N(C)[C@@H](C3CCCC3)C(=O)N(C)[C@H](C(=O)N3CCOCC3)CC(=O)N(C)[C@@H](CC(C)C)C(=O)N[C@@H]([C@@H](C)CC)C(=O)N(C)CC(=O)N(C)[C@H]3CCCCCN(C3=O)[C@@H](Cc3nccs3)C(=O)N(C)CC(=O)N[C@@H](CCc3cc(F)c(C(F)(F)F)c(F)c3)C(=O)N2C1 [PP0923]	B (a compound having 3 or more and less than 10 is denoted as B)	B (a compound having 3 or more and less than 10 is denoted as B)
